The experiment addresses T1, Streptococcus pneumonia UPPS (Streptococcus pneumoniae serotype 4, UniProt Q97SR4).
T1 construct: His-tag (N)
T1 sequence (Q97SR4 1-252): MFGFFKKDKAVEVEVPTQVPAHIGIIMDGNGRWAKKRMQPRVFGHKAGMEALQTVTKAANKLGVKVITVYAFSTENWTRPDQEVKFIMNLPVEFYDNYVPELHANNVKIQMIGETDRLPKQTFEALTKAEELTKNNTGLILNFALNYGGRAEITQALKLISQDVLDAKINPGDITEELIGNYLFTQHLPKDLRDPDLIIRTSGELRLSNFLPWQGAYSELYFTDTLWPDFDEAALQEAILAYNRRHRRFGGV
Put plainly: Determination of binding to UPPS (inorganic phosphate release, Biomol Green). It counts as biochemical. To be noted: FPP 3 μM, IPP 16 μM; 20 minutes preincubation with compound. The method, then: The ability of several of the compounds described herein to bind to UPPS was also tested as follows.
Streptococcus pneumonia UPPS was cloned into pET-15b, expressed and purified as an N-terminal His-tag fusion using affinity chromatography. The working stock of UPPS was prepared by mixing the purified enzyme with liposome made from E. coli total lipids extract (Avanti Polar Lipis, Inc., Alabaster, Ala.). The substrates FPP and IPP and inorganic pyrophosphatase were purchased from Sigma. Biomol Green reagent was from Biomol International (Plymouth Meeting, Pa.). All other chemicals were from Sigma at the highest grade.
For testing a compound, UPPS was first incubated with the compound at desired concentrations for 20 minutes in the UPPS reaction buffer that contained 100 mM Tris-HCl, pH 7.3, 50 mM KCl, 1 mM MgCl2, 0.01% Triton X-100, and 20 μg/mL BSA. The reaction was then initiated by the addition of a mixture of FPP, IPP, and E. coli […] made in the same UPPS reaction buffer. The final concentrations for FPP and IPP were 3 μM and 16 μM, respectively. The inorganic phosphate generated in the reactions was then quantified with Biomol Green reagent, which was then used to determine the rate of the reaction and the inhibitory activity of the compound.
For example, the results of the binding assay for several compounds are shown the table below: […]
Turning to `O=C(NC1CCCCC1)C1=C(O)C(Cc2ccccc2)NC1=O` (centres unmarked) [compound 23], the half-maximal inhibitory concentration (IC50) is > 50 µM.

`O=C(Nc1ccc(Oc2ccccc2)cc1)C1=C(O)C(CCc2ccccc2)NC1=O` (centres unmarked) [compound 86]: the IC50 is 0.01 to 10 µM.

For the compound `N#Cc1ccc(-c2ccc(NC(=O)C3=C(O)C(Cc4ccccc4)NC3=O)cc2)cc1` (centres unmarked) [compound 66], the IC50 is 0.01 to 10 µM.

With `CC(C)CC1CC(O)=C(C(=O)Nc2ccc(OC(F)(F)F)cc2)C(=O)N1` (centres unmarked) [compound 183], the IC50 was in the range of 0.01 to 10 µM.

With `O=C(Nc1ccc(C2CCCCC2)cc1)C1=C(O)C(c2ccccc2)NC1=O` (centres unmarked) [compound 56], the IC50 was in the range of 0.01 to 10 µM.

For `CCC1C(O)=C(C(=O)Nc2ccc(C3CCCCC3)cc2)C(=O)N1C` (centres unmarked) [compound 15], the 50% inhibitory concentration (IC50) was 10 to 50 µM.

With `CC1CC(O)=C(C(=O)Nc2ccc(Oc3ccccc3)cc2)C(=O)N1` (centres unmarked) [compound 223], the 50% inhibitory concentration (IC50) is > 50 µM.

Turning to `O=C(Nc1ccc(-n2cccn2)cc1)C1=C(O)CC(c2ccccc2)NC1=O` (centres unmarked) [compound 181], the IC50 fell in the range of 0.01 to 10 µM.

As to `CC(C)CC1NC(=O)C(C(=O)Nc2ccc(Nc3ccccc3)cc2)=C1O` (centres unmarked) [compound 104], the IC50 lay within 0.01 to 10 µM.

For `N#Cc1ccccc1Oc1cccc(NC(=O)C2=C(O)C(c3ccccc3)NC2=O)c1` (centres unmarked) [compound 8], the IC50 lay in the range of 0.01 to 10 µM.

On to `O=C(Nc1ccc(N2CCCCC2)cc1)C1=C(O)C(c2ccccc2)NC1=O` (centres unmarked) [compound 7], for which the IC50 lay within 0.01 to 10 µM.

As to `COc1ccc(NC(=O)C2=C(O)CC(c3ccccc3)NC2=O)cc1` (centres unmarked) [compound 170], the IC50 is 0.01 to 10 µM.

In the case of `CC(C)CC1NC(=O)C(C(=O)Nc2cccc(Oc3ccccc3)c2)=C1O` (centres unmarked) [compound 70], the IC50 was in the range of 0.01 to 10 µM.

For the compound `Cc1ccc2nc(-c3ccc(NC(=O)C4=C(O)C(Cc5ccccc5)NC4=O)cc3)sc2c1` (centres unmarked) [compound 4], the IC50 lay within 10 to 50 µM.

For the compound `O=C(Nc1ccc(S(=O)(=O)c2ccccc2)cc1)C1=C(O)CC(C2CCCCC2)NC1=O` (centres unmarked) [compound 206], the IC50 lay within 0.01 to 10 µM.

As for `O=C(Nc1ccc(Oc2ncc(C(F)(F)F)cc2Cl)cc1)C1=C(O)C(Cc2ccccc2)NC1=O` (centres unmarked) [compound 9], the IC50 lay in the range of 0.01 to 10 µM.

On to `O=C(Nc1cccc(Oc2ccccc2)c1)C1=C(O)C(CCc2ccccc2)NC1=O` (centres unmarked) [compound 80], for which the IC50 was 0.01 to 10 µM.

Take `O=C(Nc1ccc(C2CCCCC2)cc1)C1=C(O)C(Cc2ccccc2)NC1=O` (centres unmarked) [compound 5]: the IC50 was in the range of 0.01 to 10 µM.

For `O=C(Nc1ccc(C2CCCCC2)cc1)C1=C(O)CC(c2ccccc2)NC1=O` (centres unmarked) [compound 164], the IC50 is 0.01 to 10 µM.

On to `CC(C)CC1NC(=O)C(C(=O)NCc2ccc(-c3cccs3)cc2)=C1O` (centres unmarked) [compound 36], for which the IC50 lay in the range of 0.01 to 10 µM.

With `O=C(Nc1ccc(Oc2ccccc2)cc1)C1=C(O)CC(C2CCCCC2)NC1=O` (centres unmarked) [compound 189], the IC50 lay in the range of 0.01 to 10 µM.

With `O=C(Nc1ccc(C2CCCCC2)cc1)C1=C(O)C(c2ccccc2)NC1=O` (centres unmarked) [compound 11], the IC50 lay within 0.01 to 10 µM.

Turning to `CCN1CCN(c2ccc(NC(=O)C3=C(O)C(CC(C)C)NC3=O)cc2)CC1` (centres unmarked) [compound 148], the IC50 was 0.01 to 10 µM.

On to `CC(C)CC1NC(=O)C(C(=O)Nc2ccc(Oc3nc4ccccc4s3)cc2)=C1O` (centres unmarked) [compound 126], for which the concentration for half-maximal inhibition (IC50) is 0.01 to 10 µM.

As to `O=C(Nc1ccc(CO)cc1)C1=C(O)C(Cc2ccccc2)NC1=O` (centres unmarked) [compound 22], the IC50 was > 50 µM.

Take `COc1ccc(-c2nc(NC(=O)C3=C(O)CC(Cc4ccccc4)NC3=O)nn2-c2ccc(CO)cc2)cc1` (centres unmarked) [compound 177]: the IC50 was in the range of 0.01 to 10 µM.

`Cc1ccc2nc(-c3ccc(NC(=O)C4=C(O)C(c5ccccc5)NC4=O)cc3)sc2c1` (centres unmarked) [compound 6]: the IC50 is 0.01 to 10 µM.

For `O=C(Nc1ccc(N2CCOCC2)cc1)C1=C(O)C(c2ccccc2)NC1=O` (centres unmarked) [compound 13], the IC50 was in the range of 10 to 50 µM.

Turning to `O=C(Nc1ccc(-c2ccccc2)cc1)C1=C(O)CC(Cc2ccccc2)NC1=O` (centres unmarked) [compound 187], the IC50 lay in the range of 0.01 to 10 µM.

With `CC(C)CC1CC(O)=C(C(=O)Nc2ccc(-n3cccn3)cc2)C(=O)N1` (centres unmarked) [compound 192], the IC50 lay in the range of 0.01 to 10 µM.

Regarding `CC(C)CC1CC(O)=C(C(=O)Nc2ccc(S(=O)(=O)c3ccccc3)cc2)C(=O)N1` (centres unmarked) [compound 202], the concentration for half-maximal inhibition (IC50) lay in the range of 10 to 50 µM.

Consider `O=C(Nc1ccc(OC2CCCCC2)cc1)C1=C(O)CC(c2ccccc2)NC1=O` (centres unmarked) [compound 166], for which the IC50 is 0.01 to 10 µM.

In the case of `O=C1NCC(CC2CCCCC2)C(O)=C1C(=O)Nc1ccc(-n2ccnc2)cc1` (centres unmarked) [compound 221], the IC50 was 0.01 to 10 µM.

For `O=C(Nc1ccc(N2CCCCC2)cc1)C1=C(O)CC(Cc2ccccc2)NC1=O` (centres unmarked) [compound 174], the IC50 is 0.01 to 10 µM.

As for `O=C(Nc1ccc(-c2ccccc2)cc1)C1=C(O)CC(c2ccccc2)NC1=O` (centres unmarked) [compound 169], the IC50 was in the range of 0.01 to 10 µM.

Take `O=C(Nc1ccc(C(F)(F)F)cc1)C1=C(O)CC(c2ccccc2)NC1=O` (centres unmarked) [compound 167]: the IC50 was in the range of 0.01 to 10 µM.

On to `CCCCCCOc1ccc(NC(=O)C2=C(O)C(CCc3ccccc3)NC2=O)cc1` (centres unmarked) [compound 77], for which the IC50 is 0.01 to 10 µM.

For the compound `CC(C)CC1NC(=O)C(C(=O)Nc2ccc(-c3ccccc3)cc2)=C1O` (centres unmarked) [compound 81], the concentration for half-maximal inhibition (IC50) lay within 0.01 to 10 µM.

With `O=C(NCCSCc1c(Cl)cccc1Cl)C1=C(O)C(Cc2ccccc2)NC1=O` (centres unmarked) [compound 54], the IC50 lay within 10 to 50 µM.

As for `CC(C)CC1CC(O)=C(C(=O)Nc2ccc(C3CCCCC3)cc2)C(=O)N1` (centres unmarked) [compound 182], the IC50 is 0.01 to 10 µM.

Take `O=C(Nc1cccc(Oc2ccccc2)c1)C1=C(O)C(CC2CCCCC2)NC1=O` (centres unmarked) [compound 49]: the IC50 fell in the range of 0.01 to 10 µM.

In the case of `O=C(Nc1ccc(-c2ccccc2)cc1)C1=C(O)C(c2ccccc2)NC1=O` (centres unmarked) [compound 14], the IC50 was 0.01 to 10 µM.

`O=C(Nc1ccc(C2CCCCC2)cc1)C1=C(O)CN(Cc2ccccc2)C1=O` [compound 19]: the IC50 was in the range of 0.01 to 10 µM.

With `O=C(Nc1ccc(Cc2ccccc2)cc1)C1=C(O)C(Cc2ccccc2)NC1=O` (centres unmarked) [compound 10], the IC50 was 0.01 to 10 µM.

Regarding `O=C(Nc1ccc(-n2cccn2)cc1)C1=C(O)CC(C2CCCCC2)NC1=O` (centres unmarked) [compound 198], the IC50 is 0.01 to 10 µM.

As for `O=C(Nc1ccc(Nc2ccccc2)cc1)C1=C(O)C(CC2CCCCC2)NC1=O` (centres unmarked) [compound 103], the IC50 was 0.01 to 10 µM.

Take `O=C(Nc1ccc(C2CCCCC2)cc1)C1=C(O)C(c2ccccc2)NC1=O` (centres unmarked) [compound 116]: the half-inhibitory concentration (IC50) fell in the range of 0.01 to 10 µM.

As for `CC(C)CC1NC(=O)C(C(=O)Nc2ccc(Oc3ccccc3)cc2)=C1O` (centres unmarked) [compound 123], the half-inhibitory concentration (IC50) was 0.01 to 10 µM.

Consider `COc1cccc(NC(=O)C2=C(O)C(c3ccccc3)NC2=O)c1` (centres unmarked) [compound 12], for which the IC50 was in the range of 0.01 to 10 µM.

Regarding `O=C(Nc1ccc(-c2ccccc2)cc1)C1=C(O)C(c2ccccc2)NC1=O` (centres unmarked) [compound 16], the IC50 is 0.01 to 10 µM.

Regarding `O=C(Nc1ccc(-c2ccccc2)cc1)C1=C(O)C(Cc2c[nH]cn2)NC1=O` (centres unmarked) [compound 113], the IC50 lay in the range of 0.01 to 10 µM.

For the compound `CCCCCCOc1ccc(NC(=O)C2=C(O)C(CC(C)C)NC2=O)cc1` (centres unmarked) [compound 52], the concentration for half-maximal inhibition (IC50) was 0.01 to 10 µM.

For `O=C(Nc1ccc(N2CCCCC2)cc1)C1=C(O)C(CCc2ccccc2)NC1=O` (centres unmarked) [compound 143], the IC50 lay within 0.01 to 10 µM.

Turning to `O=C(Nc1ccc(N2CCCCC2)cc1)C1=C(O)CC(c2ccccc2)NC1=O` (centres unmarked) [compound 168], the IC50 lay within 0.01 to 10 µM.

As for `O=C(Nc1ccc(N2CCCCC2)cc1)C1=C(O)C(CCc2ccccc2)NC1=O` (centres unmarked) [compound 97], the IC50 was in the range of 0.01 to 10 µM.

Regarding `O=C(Nc1ccc(C2CCCCC2)cc1)C1=C(O)CC(C2CCCCC2)NC1=O` (centres unmarked) [compound 185], the IC50 is 0.01 to 10 µM.

Usually IC50 stands for the concentration that inhibits the measured activity by half.

The values above are taken from patent US20090203694A1, “INHIBITORS OF UNDECAPRENYL PYROPHOSPHATE SYNTHASE” (priority 2006, published 2009).
